Data on 20 compounds can be found in patent US20240199587A1, “HETEROCYCLIC COMPOUNDS” (Hoffmann-La Roche Inc., priority 2021, published 2024).

Molecules are shown by their SMILES.

For this assay, the target named is T1, MAGL (Homo sapiens, UniProt Q99685).
T1 sequence (Q99685 1-303): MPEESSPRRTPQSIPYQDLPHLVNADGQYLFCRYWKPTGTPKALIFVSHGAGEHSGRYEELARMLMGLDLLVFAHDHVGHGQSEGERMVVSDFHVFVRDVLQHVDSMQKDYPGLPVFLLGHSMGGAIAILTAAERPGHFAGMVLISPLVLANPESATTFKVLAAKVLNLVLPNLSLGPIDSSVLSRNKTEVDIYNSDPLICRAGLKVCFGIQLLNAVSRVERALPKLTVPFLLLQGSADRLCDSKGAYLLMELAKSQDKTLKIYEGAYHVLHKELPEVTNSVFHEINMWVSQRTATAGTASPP
Briefly: 2-AG assay (MAGL inhibitory activity, hydrolysis of 2-arachidonoylglycerol to arachidonic acid followed by mass spectrometry). The format is biochemical. Conditions: 8 μM 2-arachidonoylglycerol, 15 min pre-incubation, 30 min incubation at RT, RapidFire MS readout. The method, boiled down: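 Human MAGL ([…] final) pre-incubated 15 min at RT with compound in 50 mM TRIS, 1 mM EDTA, 0.01% Tween-20, 2.5% DMSO; 8 μM 2-AG then added for 30 min at RT. Acetonitrile quench with d8-arachidonic acid; arachidonic acid measured by RapidFire SPE–MS/MS, activity from arachidonic acid/d8 ratio.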
On to `O=C(N1CC(Oc2ccc(C3CC3)cc2F)C1)N1CC2(CC(n3cnc(C4CC4)n3)C2)C1` [Example 190, [3-(4-cyclopropyl-2-fluoro-phenoxy)azetidin-1-yl]-[6-(3-cyclopropyl-1,2,4-triazol-1-yl)-2-azaspiro[3.3]heptan-2-yl]methanone], for which the IC50 was found to be 0.2 nM.
To `N#Cc1c(OC2CN(C(=O)N3CC4(CC(n5cnc(C6CC6)n5)C4)C3)C2)cccc1C1CC1` [Example 191, 2-cyclopropyl-6-[1-[6-(3-cyclopropyl-1,2,4-triazol-1-yl)-2-azaspiro[3.3]heptane-2-carbonyl]azetidin-3-yl]oxy-benzonitrile] belongs 0.2 nM; to `CS(=O)(=O)c1cccc(CC2CC3(C2)CN(C(=O)N2CC4(CC(n5cnc(C6CC6)n5)C4)C2)C3)c1` [Example 192, [6-(3-cyclopropyl-1,2,4-triazol-1-yl)-2-azaspiro[3.3]heptan-2-yl]-[6-(3-mesylbenzyl)-2-azaspiro[3.3]heptan-2-yl]methanone], 0.2 nM.
Compound `O=C(N1CC2(CC(Cc3cnc(C(F)(F)F)cn3)C2)C1)N1CC2(CC(n3cnc(C4CC4)n3)C2)C1` [Example 193, [6-(3-cyclopropyl-1,2,4-triazol-1-yl)-2-azaspiro[3.3]heptan-2-yl]-[6-[[5-(trifluoromethyl)pyrazin-2-yl]methyl]-2-azaspiro[3.3]heptan-2-yl]methanone] yielded an IC50 of 0.3 nM.
With `COC(=O)C(C)(C)Cc1cccc(OC2CN(C(=O)N3CC4(CC(n5cnc(C6CC6)n5)C4)C3)C2)c1` [Example 194, methyl 3-[3-[1-[6-(3-cyclopropyl-1,2,4-triazol-1-yl)-2-azaspiro[3.3]heptane-2-carbonyl]azetidin-3-yl]oxyphenyl]-2,2-dimethyl-propanoate] the figure was 0.3 nM; with `O=C(N1CC2(CC(NS(=O)(=O)c3cccc(C(F)(F)F)c3)C2)C1)N1CC2(CC(n3cnc(C4CC4)n3)C2)C1` [Example 195, N-[2-[6-(3-cyclopropyl-1,2,4-triazol-1-yl)-2-azaspiro[3.3]heptane-2-carbonyl]-2-azaspiro[3.3]heptan-6-yl]-3-(trifluoromethyl)benzen esulfonamide], 0.4 nM; with `O=C(N1CC2(CC(n3cnc(C4CC4)n3)C2)C1)N1CC2(CN(Cc3ccc(F)cc3C(F)(F)F)C2)C1` [Example 196, [6-(3-cyclopropyl-1,2,4-triazol-1-yl)-2-azaspiro[3.3]heptan-2-yl]-[6-[[4-fluoro-2-(trifluoromethyl)phenyl]methyl]-2,6-diazaspiro[3.3]heptan-2-yl]methanone], 0.4 nM.
As for `O=C(N1CCC([C@H](c2ccc(F)cc2)c2nc(C3CC3)no2)CC1)N1CC2(CC(n3cnc(C4CC4)n3)C2)C1` [Example 197, [4-[(R)-(3-cyclopropyl-1,2,4-oxadiazol-5-yl)-(4-fluorophenyl)methyl]-1-piperidyl]-[6-(3-cyclopropyl-1,2,4-triazol-1-yl)-2-azaspiro[3.3]heptan-2-yl]methanone], the midpoint of inhibition, the IC50, lay at 0.4 nM.
Regarding `O=C(N1CC(Oc2cccc(C3CC3)c2F)C1)N1CC2(CC(n3cnc(C4CC4)n3)C2)C1` [Example 198, [3-(3-cyclopropyl-2-fluoro-phenoxy)azetidin-1-yl]-[6-(3-cyclopropyl-1,2,4-triazol-1-yl)-2-azaspiro[3.3]heptan-2-yl]methanone], the IC50 turned out to be 0.5 nM.
As for `O=C(N1CC2(CC(Cc3ncc(F)cc3F)C2)C1)N1CC2(CC(n3cnc(C4CC4)n3)C2)C1` [Example 199, [6-(3-cyclopropyl-1,2,4-triazol-1-yl)-2-azaspiro[3.3]heptan-2-yl]-[6-[(3,5-difluoro-2-pyridyl)methyl]-2-azaspiro[3.3]heptan-2-yl]methanone], half-maximal inhibition (IC50) was put at 0.5 nM.
To `COC(=O)C(C)(C)c1cccc(OC2CN(C(=O)N3CC4(CC(n5cnc(C6CC6)n5)C4)C3)C2)c1` [Example 200, methyl 2-[3-[1-[6-(3-cyclopropyl-1,2,4-triazol-1-yl)-2-azaspiro[3.3]heptane-2-carbonyl]azetidin-3-yl]oxyphenyl]-2-methyl-propanoate] belongs 0.7 nM.
With `O=C(N1CC2(CC(n3cnc(C4CC4)n3)C2)C1)N1CC2(CN(Cc3ccc(F)cc3Cl)C2)C1` [Example 201, (6-(2-chloro-4-fluorobenzyl)-2,6-diazaspiro[3.3]heptan-2-yl)(6-(3-cyclopropyl-1H-1,2,4-triazol-1-yl)-2-azaspiro[3.3]heptan-2-yl)methanone] the figure was 0.7 nM.
With `O=C(N1CC(Oc2ccc(C(F)(F)F)cc2)C1)N1CC2(CC(n3cnc(C4CC4)n3)C2)C1` [Example 202, [6-(3-cyclopropyl-1,2,4-triazol-1-yl)-2-azaspiro[3.3]heptan-2-yl]-[3-[4-(trifluoromethyl)phenoxy]azetidin-1-yl]methanone] the figure was 0.7 nM; with `CC(C)c1ncn(C2CC3(C2)CN(C(=O)N2CC4(CC(Cc5ccc(F)cc5F)C4)C2)C3)n1` [Example 203, [6-[(2,4-difluorophenyl)methyl]-2-azaspiro[3.3]heptan-2-yl]-[6-(3-isopropyl-1,2,4-triazol-1-yl)-2-azaspiro[3.3]heptan-2-yl]methanone], 0.8 nM.
`O=C(N1CC(Oc2nccc(C3CC3)c2F)C1)N1CC2(CC(n3cnc(C4CC4)n3)C2)C1` [Example 204, [3-[(4-cyclopropyl-3-fluoro-2-pyridyl)oxy]azetidin-1-yl]-[6-(3-cyclopropyl-1,2,4-triazol-1-yl)-2-azaspiro[3.3]heptan-2-yl]methanone] showed an IC50 of 0.8 nM.
To `CS(=O)(=O)c1ccc(CC2CC3(C2)CN(C(=O)N2CC4(CC(n5cnc(C6CC6)n5)C4)C2)C3)cc1` [Example 205, [6-(3-cyclopropyl-1,2,4-triazol-1-yl)-2-azaspiro[3.3]heptan-2-yl]-[6-(4-mesylbenzyl)-2-azaspiro[3.3]heptan-2-yl]methanone] belongs 0.9 nM; to `O=C(N1CC(c2ccc(N3CC(O)(C(F)(F)F)C3)nc2)C1)N1CC2(CC(n3cnc(C4CC4)n3)C2)C1` [Example 206, [6-(3-cyclopropyl-1,2,4-triazol-1-yl)-2-azaspiro[3.3]heptan-2-yl]-[3-[6-[3-hydroxy-3-(trifluoromethyl)azetidin-1-yl]-3-pyridyl]azetidin-1-yl]methanone], 0.9 nM.
To `O=C(N1CCC(C(c2ccc(F)cc2)c2nc(C3CC3)no2)CC1)N1CC2(CC(n3cnc(C4CC4)n3)C2)C1` (centres unmarked) [Example 207, [4-[(3-cyclopropyl-1,2,4-oxadiazol-5-yl)-(4-fluorophenyl)methyl]-1-piperidyl]-[6-(3-cyclopropyl-1,2,4-triazol-1-yl)-2-azaspiro[3.3]heptan-2-yl]methanone] belongs 1 nM; to `O=C(N1CC(Oc2ccc(C3CC3)nc2F)C1)N1CC2(CC(n3cnc(C4CC4)n3)C2)C1` [Example 208, [3-[(6-cyclopropyl-2-fluoro-3-pyridyl)oxy]azetidin-1-yl]-[6-(3-cyclopropyl-1,2,4-triazol-1-yl)-2-azaspiro[3.3]heptan-2-yl]methanone], 1.1 nM.
In the case of `O=C(N1CC2(CC(n3cnc(C4CC4)n3)C2)C1)N1CC2(C1)CN(S(=O)(=O)c1cccc(C(F)(F)F)c1)C2` [Example 209, [6-(3-cyclopropyl-1,2,4-triazol-1-yl)-2-azaspiro[3.3]heptan-2-yl]-[2-[3-(trifluoromethyl)phenyl]sulfonyl-2,6-diazaspiro[3.3]heptan-6-yl]methanone], it took 1.2 nM to reach half-maximal inhibition (IC50).

By IC50 is commonly meant the concentration that inhibits the measured activity by half.
